Measurements as given in patent publication US6875773B1, “Combination therapy for treatment of FIV infection” (priority 1998, dated 2005).

Legend:
[1] = test system: FIV; conditions: background statement, no reference given; cited from earlier work
[2] = test system: FIVBang; experiment: Anti-FIV activity (RT activity) in primary cat PBMC infected with FIVBang; assay type: cell-based, Feline immunodeficiency virus; conditions: for effect of adding the protease inhibitor to the AZT/3TC combination on antiviral activity: FIVBang; for FIV replication in PBMC (RT activity), result in words: FIVBang 100 TCID50, drug added immediately before inoculation, nontoxic doses
Procedure: Nucleoside analogue and PI doses were 0.1 μM in Experiment 1 (panel A) and 0.05 μM and 0.01 μM, respectively, in Experiment 2 (panel B).
(§1) As a means to simulate in vivo conditions, primary peripheral blood mononuclear cells (PBMC) from specific pathogen free (SPF) cats were next used as the indicator cells. Primary PBMC isolated by ficoll hypaque method were stimulated with concanavalin A for 3 days and cultured for an additional 2 weeks before their use in drug studies (Staszewski, 1995). Antiretroviral drug(s) were added to the PBMC cultures (1×10^6 cells/ml) immediately before FIVBang, (subtype B) or FIVUK-8(subtype A) inoculation of 100 50% tissue culture infectious dose (TCID50).

[3] = test system: FIVBang; experiment: Anti-FIV activity (RT activity in supernatant) in feline T-cell line chronically infected with FIVBang (FIVBang/FeT-J cells); assay type: cell-based, Feline immunodeficiency virus; conditions: nontoxic doses
Procedure: (§2) The antiviral activity of the drugs at noncytotoxic doses were evaluated in feline T-cell lines chronically infected with either FIVPet (subtype A strain) (panel A), or FIVBang (subtype B strain) (panel B). The RT data are presented as % control, whereby % control represents RT mean of triplicate treated cultures divided by RT mean of triplicate untreated cultures and multiplied by 100. The RT data on harvest days at 6, 9, and 12 are shown.
(§3) In the first set of in vitro studies, feline T-cell lines chronically infected with FIVPet, (FL-4 cells) or FIVBang, (FIVBang/FeT-J cells) at 2×10^5 cells/ml were treated for 3 weeks with a single drug or various combinations of AZT, 3TC, an FIV protease inhibitor (FIV-PI; Hoescht-Bayer HBY-793), and HIV protease inhibitors (HIV-PI) (FIGS. 1A and 1B). Saquinavir (SQV) and Indinavir (IDV) were used as the HIV-PIs. Culture supernatants were harvested and the cells were resuspended in fresh culture media containing appropriate drug(s) at […]. Viral replication was determined by measuring the levels of reverse transcriptase (RT) activity in the culture supernatants (Rey et al., 1984). Drug toxicity in these cultures were monitored by viability and absolute cell count analyses using trypan blue exclusion method (Mishell et al., 1980).
(§4) Single and combination drug doses which were determined to be nontoxic to the test cells were used in these studies.

[4] = test system: FIVPet; experiment: Anti-FIV activity (RT activity in supernatant) in feline T-cell line chronically infected with FIVPet (FL-4 cells); assay type: cell-based, Feline immunodeficiency virus; conditions: nontoxic doses
Procedure: as §2, §3, §4

[5] = test system: FIVUK-8; experiment: Anti-FIV activity (RT activity) in primary cat PBMC infected with FIVUK-8; assay type: cell-based, Feline immunodeficiency virus; conditions: for effect of adding the protease inhibitor to the AZT/3TC combination on antiviral activity: FIVUK-8; for FIV replication in PBMC (RT activity), result in words: FIVUK-8 100 TCID50, drug added immediately before inoculation, nontoxic doses
Procedure: Nucleoside analogue and P1 doses were 0.1 μM and 0.01-0.5 μM, respectively, in Experiment 1 (panel A) and 0.05 μM and 0.01-0.5 μM respectively, in Experiment 2 (panel B).
as §1

[6] = target: HIV protease (Human immunodeficiency virus type 1 group M subtype B, UniProt P04585); conditions: Dunn et al., 1994; Wlodawer et al., 1995; cited from earlier work
[7] = target: FIV protease (Feline immunodeficiency virus, UniProt P16088); conditions: Dunn et al., 1994; Wlodawer et al., 1995; cited from earlier work

For `CC(C)(C)NC(=O)[C@@H]1C[C@@H]2CCCC[C@@H]2CN1C[C@@H](O)[C@H](Cc1ccccc1)NC(=O)[C@H](CC(N)=O)NC(=O)c1ccc2ccccc2n1` [SQV, Saquinavir], the “FIV replication in PBMC in vitro” value [1] is listed as “do not inhibit FIV replication”, the “effect of adding the protease inhibitor to the AZT/3TC combination on antiviral activity” value (“effect of adding the protease inhibitor” below) [2] is listed as “did not enhance the antiviral activity of the AZT/3TC combination” and the “FIV replication in PBMC (RT activity), result in words” value (shortened to “FIV replication in PBMC (RT activity)”) [2] is listed as “lack of anti-FIV activity”. The “anti-FIV activity (RT activity), result in words” value (shortened to “anti-FIV activity (RT activity)”) [3] was “neither SQV nor IDV alone had significant anti-FIV effect”, the “anti-FIV activity (RT activity)” value [4] was “neither SQV nor IDV alone had significant anti-FIV effect” and the “effect of adding the protease inhibitor” value [5] was “did not enhance the antiviral activity of the AZT/3TC combination”. The “FIV replication in PBMC (RT activity)” value [5] was “lack of anti-FIV activity”.

In the case of `CC(C)[C@H](NC(=O)[C@H](Cc1cccc2ccccc12)CS(=O)(=O)C(C)(C)C)C(=O)N[C@@H](Cc1ccccc1)[C@H](O)[C@H](O)[C@H](Cc1ccccc1)NC(=O)[C@@H](NC(=O)[C@H](Cc1cccc2ccccc12)CS(=O)(=O)C(C)(C)C)C(C)C` [FIV-PI], the “binding to HIV protease” value [6] is given as “efficiently binds”, the “FIV replication in PBMC (RT activity)” value [2] is given as “inhibited FIV replication” and the “binding to FIV protease” value [7] is given as “efficiently binds”. For the same molecule, the “inhibition of RT activity / FIV replication” value ([3]; treated for 3 weeks) was 70-80%, the “inhibition of RT activity / FIV replication” value ([4]; treated for 3 weeks) was 70-80% and the “FIV replication in PBMC (RT activity)” value [5] was “inhibited FIV replication”.

In the case of `CC(C)c1nc(CN(C)C(=O)N[C@H](C(=O)N[C@@H](Cc2ccccc2)C[C@H](O)[C@H](Cc2ccccc2)NC(=O)OCc2cncs2)C(C)C)cs1` [Ritonavir], the “FIV replication in PBMC in vitro” value [1] is listed as “do not inhibit FIV replication”.

In the case of `CC(C)(C)NC(=O)[C@@H]1CN(Cc2cccnc2)CCN1C[C@@H](O)C[C@@H](Cc1ccccc1)C(=O)N[C@H]1c2ccccc2C[C@H]1O` [IDV, Indinavir], the “FIV replication in PBMC in vitro” value [1] is given as “do not inhibit FIV replication”, the “effect of adding the protease inhibitor” value [2] is given as “did not enhance the antiviral activity of the AZT/3TC combination” and the “FIV replication in PBMC (RT activity)” value [2] is given as “lack of anti-FIV activity”. For the same molecule, the “anti-FIV activity (RT activity)” value [3] was “neither SQV nor IDV alone had significant anti-FIV effect”, the “anti-FIV activity (RT activity)” value [4] was “neither SQV nor IDV alone had significant anti-FIV effect” and the “effect of adding the protease inhibitor” value [5] was “did not enhance the antiviral activity of the AZT/3TC combination”. For the same molecule, the “FIV replication in PBMC (RT activity)” value [5] was “lack of anti-FIV activity”.

In the case of `Cc1c(O)cccc1C(=O)N[C@@H](CSc1ccccc1)[C@H](O)CN1C[C@H]2CCCC[C@H]2C[C@H]1C(=O)NC(C)(C)C` [Nelfinavir], the “FIV replication in PBMC in vitro” value [1] is listed as “do not inhibit FIV replication”.
